In BigSolDB 2.1:

Conditions: in water

CC(C)Br
Conditions	solubility (mole fraction)
295.25 K	0.000587
300.15 K	0.00082
303.55 K	0.00104
306.25 K	0.00121
310.35 K	0.00157
313.25 K	0.00189
316.15 K	0.00227
321.25 K	0.00307
323.25 K	0.00343
325.55 K	0.00394
329.35 K	0.00483
331.25 K	0.00536
334.15 K	0.0063
337.35 K	0.00743
340.55 K	0.0087
343.15 K	0.0101
345.45 K	0.0112
348.55 K	0.0127
350.15 K	0.0139
352.35 K	0.0154
354.75 K	0.0171

NC(N)=S
Conditions	solubility (mole fraction)
290.75 K	0.0256
293.05 K	0.0289
296.65 K	0.0347
300.25 K	0.0413
303.15 K	0.0474
307.1 K	0.0583
310.15 K	0.0641
313.15 K	0.071
315.85 K	0.0806
318.35 K	0.0886
320.75 K	0.0969
323.25 K	0.103
326.05 K	0.116
328.45 K	0.126
330.55 K	0.135
333.25 K	0.15
336.45 K	0.161
340.75 K	0.183
343.55 K	0.198
347.35 K	0.218
351.15 K	0.239
353.45 K	0.251
355.75 K	0.265
